Laboratory results reported in patent US9670213B2, “Pteridine ketone derivative and applications thereof as EGFR, BLK, and FLT3 inhibitor” (EAST CHINA UNIVERSITY OF SCIENCE AND TECHNOLOGY, priority 2012, dated 2017).

Columns and labels:
EGFR-T790M = EGFR-T790M (Homo sapiens (Human), UniProt P00533, T790M); experiment: In vitro EGFR kinase activity assay (Z'-Lyte); conditions: read-out: Inhibitory activity on EGFR kinase (IC50, nM) T790M
Experimental: (§9) Inhibitory effects in vitro of the compounds provided in the present invention on EGFR kinase activity was tested as follows:
(§10) 10 concentration gradients, from 5.1×10^−11 mol/L to 1.0×10^−6 mol/L, were set for all of the compounds to be tested.
(§11) 10 μL of kinase reaction system comprised 2.5 μL of compound solution, 5 μL of Kinase/peptide mixture, and 2.5 μL of ATP solution. 5 μL of phosphopeptide solution was used in place of kinase/peptide mixture as 100% phosphorylation control. […] After thoroughly mixing the solution within the plate, the plate was incubated at room temperature for 1.5 hours. 5 μL of DevelopmentSolution was added into each well, and then the plate was incubated at room temperature for another 1 hour, and non-phosphorylated peptide was cleaved within this period. Finally, the reaction was quenched by adding 5 μL of Stop Reagent. The Plate was measured with EnVision Multilabel Reader (Perkin Elmer). Experimental data were calculated by using GraphPad Prism version 4.0. Each experiment was repeated more than three times.

EGFR-L858R = EGFR-L858R (Homo sapiens (Human), UniProt P00533, L858R); experiment: In vitro EGFR kinase activity assay (Z'-Lyte); type: biochemical; conditions: read-out: Inhibitory activity on EGFR kinase (IC50, nM) L858R;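 also: Cell-free kinase reaction with peptide substrate and ATP, 1.5 h at room temperature, then development step cleaving non-phosphorylated peptide, 10-point dilution series 0.051–1000 nM, phosphopeptide as 100% phosphorylation control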
Sequence of EGFR-L858R (P00533 25-1210 L858R): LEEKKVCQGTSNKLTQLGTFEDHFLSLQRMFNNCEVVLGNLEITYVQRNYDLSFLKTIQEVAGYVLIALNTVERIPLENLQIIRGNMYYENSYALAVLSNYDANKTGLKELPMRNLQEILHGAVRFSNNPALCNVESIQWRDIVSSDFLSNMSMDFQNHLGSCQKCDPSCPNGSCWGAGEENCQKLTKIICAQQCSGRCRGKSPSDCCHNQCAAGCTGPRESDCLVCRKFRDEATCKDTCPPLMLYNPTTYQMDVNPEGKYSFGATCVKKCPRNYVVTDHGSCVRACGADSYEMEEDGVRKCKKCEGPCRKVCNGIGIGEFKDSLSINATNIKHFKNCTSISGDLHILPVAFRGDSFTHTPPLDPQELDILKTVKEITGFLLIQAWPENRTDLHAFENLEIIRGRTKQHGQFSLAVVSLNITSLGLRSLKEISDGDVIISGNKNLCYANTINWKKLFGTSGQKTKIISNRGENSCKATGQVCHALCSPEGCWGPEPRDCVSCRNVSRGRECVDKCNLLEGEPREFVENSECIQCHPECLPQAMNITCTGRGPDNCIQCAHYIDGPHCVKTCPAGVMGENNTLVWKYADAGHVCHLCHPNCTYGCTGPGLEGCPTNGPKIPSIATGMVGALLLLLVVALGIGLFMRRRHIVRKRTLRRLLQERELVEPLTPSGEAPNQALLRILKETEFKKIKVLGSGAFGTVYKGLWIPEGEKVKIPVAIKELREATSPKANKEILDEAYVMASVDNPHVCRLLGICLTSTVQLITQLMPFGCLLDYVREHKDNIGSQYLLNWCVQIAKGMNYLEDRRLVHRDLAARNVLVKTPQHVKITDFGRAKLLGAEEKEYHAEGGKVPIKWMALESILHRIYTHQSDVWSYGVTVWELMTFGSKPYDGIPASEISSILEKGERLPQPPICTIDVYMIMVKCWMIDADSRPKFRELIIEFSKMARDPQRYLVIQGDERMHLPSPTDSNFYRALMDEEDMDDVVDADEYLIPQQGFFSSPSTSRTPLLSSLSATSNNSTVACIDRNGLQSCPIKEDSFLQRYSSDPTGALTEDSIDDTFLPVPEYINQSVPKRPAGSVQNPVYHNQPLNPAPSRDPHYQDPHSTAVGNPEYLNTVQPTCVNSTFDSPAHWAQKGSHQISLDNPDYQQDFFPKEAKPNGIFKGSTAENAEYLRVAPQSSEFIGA
Experimental: as §9, §10, §11

FLT3 = FLT3 (Homo sapiens (Human), UniProt P36888); experiment: FLT3 kinase activity assay (Caliper); type: biochemical; conditions: read-out: Inhibitory activity on kinase (IC50, nM) FLT3
Sequence of FLT3 (P36888 27-993): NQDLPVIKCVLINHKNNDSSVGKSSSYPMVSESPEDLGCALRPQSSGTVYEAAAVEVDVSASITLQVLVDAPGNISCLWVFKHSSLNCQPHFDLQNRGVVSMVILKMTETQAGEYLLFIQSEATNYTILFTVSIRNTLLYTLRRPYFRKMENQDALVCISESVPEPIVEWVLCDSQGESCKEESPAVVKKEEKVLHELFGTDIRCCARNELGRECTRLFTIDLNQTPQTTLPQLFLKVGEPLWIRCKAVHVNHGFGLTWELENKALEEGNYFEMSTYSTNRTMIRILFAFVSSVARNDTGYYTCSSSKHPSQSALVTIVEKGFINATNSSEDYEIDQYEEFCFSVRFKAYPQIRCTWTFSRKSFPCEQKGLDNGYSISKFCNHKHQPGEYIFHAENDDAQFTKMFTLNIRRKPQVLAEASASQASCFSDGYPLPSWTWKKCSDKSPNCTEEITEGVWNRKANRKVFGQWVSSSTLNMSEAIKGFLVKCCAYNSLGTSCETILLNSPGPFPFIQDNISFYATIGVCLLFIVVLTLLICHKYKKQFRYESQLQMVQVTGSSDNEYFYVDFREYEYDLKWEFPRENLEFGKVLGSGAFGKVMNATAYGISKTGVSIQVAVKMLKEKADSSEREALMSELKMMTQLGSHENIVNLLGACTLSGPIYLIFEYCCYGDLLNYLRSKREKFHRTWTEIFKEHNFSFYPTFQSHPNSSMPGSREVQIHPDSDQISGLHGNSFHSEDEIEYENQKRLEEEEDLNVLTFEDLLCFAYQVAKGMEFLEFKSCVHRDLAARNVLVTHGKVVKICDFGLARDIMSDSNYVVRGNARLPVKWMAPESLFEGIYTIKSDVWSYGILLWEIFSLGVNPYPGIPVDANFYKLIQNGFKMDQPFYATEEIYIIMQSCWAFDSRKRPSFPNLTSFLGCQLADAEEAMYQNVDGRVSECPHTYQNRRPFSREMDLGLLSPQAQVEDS
Experimental: (§1) Preparation of 1× kinase matrix buffer and stop buffer.
(§2) Preparation of compound solution. The compound was dissolved in 100% DMSO to a concentration, which was 50 times of the final highest inhibiting-concentration. 100 μL of the compound solution as said above was transferred into wells of 96-well plate. The above compound solution was sequentially diluted to the final desired concentration. In two blank wells of same 96-well plate, 100 μL of 100% DMSO was added as no-compound and no-kinase control, and this plate was used as the original plate.
(§3) Preparation of intermediate plate. 10 μL of compound solution was transferred from the original plate to another 96-well plate as the intermediate plate; 90 μL of 1× kinase buffer was added into each well of the intermediate plate, and the intermediate plate was shaken for 10 min.
(§4) Preparation of assay plate. 5 μL of solution from each well of intermediate plate was added into a 384-well plate, and repeated controls were set.
(§5) Kinase reaction. 2.5× kinase solution and 2.5× peptide solution were prepared. 2.5× kinase solution was transferred into assay plate. Assay plate comprised 5 μL of the compound solution in 10% DMSO. 10 μL of 2.5× kinase solution was added in each well of 384-well assay plate. […] 2.5× peptide solution was added into each well. After incubated at 28° C. for an appropriate time, 25 μL of stop buffer was added to quench the reaction. Experimental data were collected in Caliper. Curve was fitted.

[1] = test system: SK-BR-3 (breast cancer cells, Her2 overexpression); experiment: Cell proliferation and growth inhibition analysis; type: cell-based; conditions: Homo sapiens; SK-BR-3 cells, 72 hours; read-out: Inhibitory activity on cell proliferation (IC50, μM) SK-BR-3
Experimental: (§6) Cell proliferation and growth inhibition analysis: H1975 (non-small cell lung cancer cells, EGFR^L858/T790M), HCC827 (non-small cell lung cancer cells, EGFR^del E746-A750), A549 (non-small cell lung cancer cells, EGFR wild-type), BT474 (breast cancer cells, Her2 overexpression), SK-BR-3 (breast cancer cells, Her2 overexpression), MCF-7 (breast cancer cells, […]) cells were obtained from ATCC. Cell proliferation was evaluated by MTS assay. Cells were exposed to the process conditions for 72 hours, and the number of cells for each cell line used in the experiment was adjusted according to the absorbance value (absorbance value at 490 nm was 1.3-2.2). 6 concentration gradients (0.1 nM-10 μM) were set for the compounds to be tested, with six parallel controls for each concentration.

MCF-7 = experiment: Cell proliferation and growth inhibition analysis; type: cell-based; conditions: Homo sapiens, MCF7; MCF-7 cells, 72 hours; read-out: Inhibitory activity on cell proliferation (IC50, μM) MCF-7
Experimental: as §6

[2] = test system: BT474 (breast cancer cells, Her2 overexpression); experiment: Cell proliferation and growth inhibition analysis; type: cell-based; conditions: Homo sapiens, BT-474, 72 hours, read-out: Inhibitory activity on cell proliferation (IC50, μM) BT474
Experimental: as §6

[3] = test system: A549 (non-small cell lung cancer cells, EGFR wild-type); experiment: Cell proliferation and growth inhibition analysis; type: cell-based; conditions: Homo sapiens, 72 hours, read-out: Inhibitory activity on cell proliferation (IC50, μM) A549
Experimental: as §6

BLK = BLK (Homo sapiens (Human), UniProt P51451); experiment: BLK kinase activity assay (Caliper); type: biochemical; conditions: read-out: Inhibitory activity on kinase (IC50, nM) BLK
Sequence of BLK (P51451 whole entry): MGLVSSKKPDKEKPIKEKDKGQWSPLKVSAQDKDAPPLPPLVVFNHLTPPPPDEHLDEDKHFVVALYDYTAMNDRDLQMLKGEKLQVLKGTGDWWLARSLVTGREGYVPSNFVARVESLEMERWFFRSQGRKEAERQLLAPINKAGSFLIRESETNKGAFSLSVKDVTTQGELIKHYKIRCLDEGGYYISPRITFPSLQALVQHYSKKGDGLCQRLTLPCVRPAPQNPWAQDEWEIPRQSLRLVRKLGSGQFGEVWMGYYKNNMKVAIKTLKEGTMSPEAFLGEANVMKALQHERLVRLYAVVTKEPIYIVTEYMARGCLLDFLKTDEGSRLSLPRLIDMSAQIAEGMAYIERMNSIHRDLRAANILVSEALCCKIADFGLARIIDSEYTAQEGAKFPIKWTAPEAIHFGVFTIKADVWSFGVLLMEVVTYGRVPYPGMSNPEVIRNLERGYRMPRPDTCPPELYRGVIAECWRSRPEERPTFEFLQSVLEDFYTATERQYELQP
Experimental: as §1, §2, §3, §4, §5

EGFR-L858R/T790M = EGFR-L858R/T790M (Homo sapiens (Human), UniProt P00533, L858R/T790M); experiment: In vitro EGFR kinase activity assay (Z'-Lyte); type: biochemical; conditions: read-out: Inhibitory activity on EGFR kinase (IC50, nM) T790M/L858R;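 also: Cell-free kinase reaction with peptide substrate and ATP, 1.5 h at room temperature, development cleaving unphosphorylated peptide, 10-point dilution 0.051–1000 nM, phosphopeptide as 100% phosphorylation control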
Sequence of EGFR-L858R/T790M (P00533 25-1210 T790M/L858R): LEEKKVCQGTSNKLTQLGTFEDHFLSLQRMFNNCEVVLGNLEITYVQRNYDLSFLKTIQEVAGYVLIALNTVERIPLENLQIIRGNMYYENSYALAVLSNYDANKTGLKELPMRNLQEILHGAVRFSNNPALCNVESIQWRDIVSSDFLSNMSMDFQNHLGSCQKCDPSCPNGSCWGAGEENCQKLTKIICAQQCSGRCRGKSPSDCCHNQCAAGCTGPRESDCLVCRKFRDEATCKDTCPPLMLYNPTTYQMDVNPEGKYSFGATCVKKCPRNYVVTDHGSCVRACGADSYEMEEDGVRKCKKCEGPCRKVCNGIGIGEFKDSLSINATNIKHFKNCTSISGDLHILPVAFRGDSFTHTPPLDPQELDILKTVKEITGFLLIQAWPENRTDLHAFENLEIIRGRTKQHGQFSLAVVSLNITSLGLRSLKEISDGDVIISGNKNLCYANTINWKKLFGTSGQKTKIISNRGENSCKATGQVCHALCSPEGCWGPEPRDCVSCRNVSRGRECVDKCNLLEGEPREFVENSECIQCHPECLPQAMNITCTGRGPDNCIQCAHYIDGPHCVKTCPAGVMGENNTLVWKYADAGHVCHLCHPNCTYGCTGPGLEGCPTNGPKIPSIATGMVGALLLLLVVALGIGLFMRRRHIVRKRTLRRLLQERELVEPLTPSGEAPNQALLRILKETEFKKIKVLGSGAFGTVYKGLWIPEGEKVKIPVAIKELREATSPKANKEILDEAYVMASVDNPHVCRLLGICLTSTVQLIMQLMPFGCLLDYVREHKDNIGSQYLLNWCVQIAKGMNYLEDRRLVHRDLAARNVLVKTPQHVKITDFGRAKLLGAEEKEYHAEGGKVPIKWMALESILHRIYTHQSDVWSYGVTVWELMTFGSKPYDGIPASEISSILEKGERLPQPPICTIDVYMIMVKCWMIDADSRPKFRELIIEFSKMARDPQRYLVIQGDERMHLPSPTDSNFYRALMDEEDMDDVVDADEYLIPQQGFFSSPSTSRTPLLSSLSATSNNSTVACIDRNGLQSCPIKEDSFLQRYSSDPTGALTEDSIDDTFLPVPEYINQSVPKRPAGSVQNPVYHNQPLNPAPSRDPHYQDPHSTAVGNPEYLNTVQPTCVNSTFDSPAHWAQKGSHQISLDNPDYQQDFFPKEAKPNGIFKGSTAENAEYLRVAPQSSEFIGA
Experimental: as §9, §10, §11

wild-type EGFR = wild-type EGFR (Homo sapiens (Human), UniProt P00533); experiment: In vitro EGFR kinase activity assay (Z'-Lyte); type: biochemical; conditions: EGFR WT; read-out: Inhibitory activity on EGFR kinase (IC50, nM) WT;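 also: Ten-point dose series from 5.1×10^−11 to 1.0×10^−6 mol/L, kinase reaction 1.5 h at room temperature, then 1 h development cleaving unphosphorylated peptide, phosphopeptide as 100% phosphorylation control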
Sequence of wild-type EGFR (P00533 25-1210): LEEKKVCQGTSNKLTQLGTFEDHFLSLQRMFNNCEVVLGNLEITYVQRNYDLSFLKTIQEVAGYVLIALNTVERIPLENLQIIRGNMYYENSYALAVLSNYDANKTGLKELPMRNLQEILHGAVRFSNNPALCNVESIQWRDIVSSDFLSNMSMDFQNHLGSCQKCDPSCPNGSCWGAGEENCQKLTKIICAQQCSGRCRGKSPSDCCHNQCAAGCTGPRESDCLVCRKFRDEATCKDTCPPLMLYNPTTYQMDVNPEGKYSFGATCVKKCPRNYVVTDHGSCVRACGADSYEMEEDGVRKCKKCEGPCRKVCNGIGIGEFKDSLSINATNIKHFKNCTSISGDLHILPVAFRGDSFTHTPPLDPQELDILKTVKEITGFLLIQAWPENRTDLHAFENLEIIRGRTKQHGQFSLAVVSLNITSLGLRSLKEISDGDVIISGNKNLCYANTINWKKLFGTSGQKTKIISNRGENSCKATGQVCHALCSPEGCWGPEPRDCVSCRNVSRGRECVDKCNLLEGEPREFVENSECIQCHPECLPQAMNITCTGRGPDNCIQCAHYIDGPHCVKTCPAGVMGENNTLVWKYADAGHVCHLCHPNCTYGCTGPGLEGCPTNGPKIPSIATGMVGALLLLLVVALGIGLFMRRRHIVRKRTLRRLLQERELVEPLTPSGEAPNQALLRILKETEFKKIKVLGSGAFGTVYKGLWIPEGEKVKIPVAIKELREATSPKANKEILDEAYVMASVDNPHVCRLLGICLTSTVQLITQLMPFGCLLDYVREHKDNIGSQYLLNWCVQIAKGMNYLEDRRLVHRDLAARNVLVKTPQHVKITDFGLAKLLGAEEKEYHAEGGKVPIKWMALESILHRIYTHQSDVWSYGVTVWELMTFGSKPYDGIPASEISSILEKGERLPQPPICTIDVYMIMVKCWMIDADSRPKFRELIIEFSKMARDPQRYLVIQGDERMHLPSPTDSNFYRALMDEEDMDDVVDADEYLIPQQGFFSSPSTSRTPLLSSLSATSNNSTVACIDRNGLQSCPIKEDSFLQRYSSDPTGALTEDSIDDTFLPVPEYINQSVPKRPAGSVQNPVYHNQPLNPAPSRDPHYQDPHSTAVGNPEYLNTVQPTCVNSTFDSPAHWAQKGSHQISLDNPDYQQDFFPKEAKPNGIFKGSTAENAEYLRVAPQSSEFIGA
Experimental: as §9, §10, §11

[4] = test system: HCC827 (non-small cell lung cancer cells, EGFR del E746-A750); experiment: Cell proliferation and growth inhibition analysis; type: cell-based; conditions: Homo sapiens, 72 hours, read-out: Inhibitory activity on cell proliferation (IC50, μM) HCC827
Experimental: (§7) Cell proliferation was evaluated by MTS assay. Cells were exposed to the process conditions for 72 hours, and the number of cells for each cell line used in the experiment was adjusted according to the absorbance value (absorbance value at 490 nm was 1.3-2.2). 6 concentration gradients (0.1 nM-10 μM) were set for the compounds to be tested, with six parallel controls for each concentration.
(§8) H1975, HCC827, A549, BT474, MCF-7, SK-BR-3 cells were cultured in the corresponding medium. Upon recovery, the cells were passaged at least two times and then used in experiments. Cells in Log phase were trypsinized and resuspended in the medium. H1975 (1000 cells per well), BT474 (1500 cells per well), MCF-7 (1500 cells per well), HCC827 (2000 cells per well), SK-BR-3 (2000 cells per well), A549 (2000 cells per well) were seeded into 96-well plates, the volume was 100 μL, and 6 rows and 7 columns were set. The plate was placed in an incubator at 37° C. of 5% carbon dioxide overnight. Compounds were dissolved in DMSO to obtain the concentration of […], and then gradually diluted to obtain the concentration of compound as […], 0.1 μM, 0.01 μM, 0.001 μM, 0.0001 μM. 2 μL of compound solution was added into 998 μL of medium, and the resulting mixture was thoroughly mixed. 100 μL of mixture was added into 96-well plate. […] After the cells were cultured for 68 hours, 20 μL of MTT (5 mg/mL) was added. After 4 hours, the supernatant was discarded and 150 μL of DMSO was added. The resulting system was shaken for 10 minutes, and the plate was read with Synergy HT (Bio TeK) (OD490). The data was calculated by GraphPad Prism version 4.0, and IC50 was obtained by non-linear regression model using dose-response curve.

[5] = test system: H1975 (non-small cell lung cancer cells, EGFR L858R/T790M); experiment: Cell proliferation and growth inhibition analysis; type: cell-based; conditions: Homo sapiens, NCI-H1975, 72 hours, read-out: Inhibitory activity on cell proliferation (IC50, μM) H1975
Experimental: as §7, §8

Compound	IC50 (EGFR-T790M) [nM]	IC50 (EGFR-L858R) [nM]	IC50 (FLT3) [nM]	IC50 [1] [µM]	IC50 (MCF-7) [µM]	IC50 [2] [µM]	IC50 [3] [µM]	IC50 (BLK) [nM]	IC50 (EGFR-L858R/T790M) [nM]	IC50 (wild-type EGFR) [nM]	IC50 [4] [µM]	IC50 [5] [µM]
COc1ccc(Nc2ncc3ncc(=O)n(-c4ccc(N)cc4)c3n2)cc1 [Compound 001]	> 10000	> 10000	27	> 10	> 10	> 10	> 10	> 10000	> 10000	> 10000	> 10	> 10
C=CC(=O)Nc1ccc(-n2c(=O)cnc3cnc(Nc4ccc(OC)cc4)nc32)cc1 [Compound 002, N-(4-(2-(4-methoxyphenylamino)-7-oxo-8(7H)-pteridin-yl)phenyl)acrylamide]	665	546	128	1.57	1.51	> 10	1.23	3040	606	446	1.29	2.75
C=CC(=O)Nc1ccc(-n2c(=O)cnc3cnc(Nc4ccc(N5CCOCC5)cc4)nc32)cc1 [Compound 003, N-(4-(2-(4-morpholino-phenylamino)-7-oxo-8(7H)-pteridin-yl)phenyl)acrylamide]	8700	4080	137	> 10	> 10	> 10	> 10	4170	3300	8010	3.01	> 10
C=CC(=O)Nc1ccc(-n2c(=O)c(C)nc3cnc(Nc4ccc(OC)cc4)nc32)cc1 [Compound 004, N-(4-(2-(4-methoxyphenylamino)-6-methyl-7-oxo-8(7H)-pteridin-yl)phenyl)acrylamide]	> 10000	4880	206	> 10	> 10	> 10	> 10	> 10000	> 10000	3180	3.33	> 10
COc1ccc(Nc2ncc3ncc(=O)n(-c4cccc(N)c4)c3n2)cc1 [Compound 005]	> 10000	87200	30	> 10	> 10	> 10	> 10	> 10000	> 10000	> 10000	> 10	> 10
C=CC(=O)Nc1cccc(-n2c(=O)cnc3cnc(Nc4ccc(OC)cc4)nc32)c1 [Compound 006, N-(3-(2-(4-methoxyphenylamino)-7-oxo-8(7H)-pteridin-yl)phenyl) acrylamide]	19.4	10.1	1590	2.35	15	2.24	0.73	69	8.4	10.6	0.009	0.133
CCC(=O)Nc1cccc(-n2c(=O)cnc3cnc(Nc4ccc(OC)cc4)nc32)c1 [Compound 007, N-(3-(2-(4-methoxyphenylamino)-7-oxo-8(7H)-pteridin-yl)phenyl) propionamide]	> 10000	> 10000	1490	> 10	> 10	> 10	> 10	> 10000	> 10000	> 10000	> 10	> 10
CCC(=O)Nc1ccc(-n2c(=O)cnc3cnc(Nc4ccc(OC)cc4)nc32)cc1 [Compound 008, N-(4-(2-(4-methoxyphenylamino)-7-oxo-8(7H)-pteridin-yl)phenyl) propionamide]	> 10000	> 10000	115	> 10	> 10	> 10	6.12	> 10000	> 10000	> 10000	> 10	> 10
COc1ccc(Nc2ncc3ncc(=O)n(-c4ccc(NC(=O)/C=C/CN(C)C)cc4)c3n2)cc1 [Compound 009, 4-(dimethylamino)-N-(4-(2-(4-methoxyphenylamino)-7-oxo-8(7H)-pteridin-yl)phenyl)-2-buteneamide]	10.9	81.1	152	1.15	2.41	0.84	2.24	5310	39.1	60.7	0.91	4.65
COc1ccc(Nc2ncc3ncc(=O)n(-c4cccc(NC(=O)/C=C/CN(C)C)c4)c3n2)cc1 [Compound 010, 4-(dimethylamino)-N-(3-(2-(4-methoxyphenylamino)-7-oxo-8(7H)-pteridin-yl)phenyl)-2-buteneamide]	2250	6080	4390	7.17	3.6	3.43	> 10	106	2020	8090	4.16	> 10
COc1ccc(-n2c(=O)cnc3cnc(Nc4ccc(N)cc4)nc32)cc1 [Compound 030, 2-(4-aminophenylamino)-8-(4-methoxyphenyl)-7(8H)-pteridin-one]	–	23800	43	–	–	–	–	> 10000	6750	3420	4.65	15.3
C=CC(=O)Nc1ccc(-n2c(=O)cnc3cnc(Nc4ccc(N5CCN(C)CC5)cc4OC)nc32)cc1 [Compound 031]	–	376	180	–	–	–	–	812	229	429	0.466	2.88
